{"source": "patent US10226472B2", "about": "“Methods for the treatment of breast cancer” (SYNDAX PHARMACEUTICALS, INC., priority 2011, dated 2019)", "key": {"[1]": {"system": "locally recurrent or metastatic estrogen receptor-positive breast cancer", "assay": "PFS by change in protein lysine acetylation in PBMCs (biomarker subset of the Phase 2 study)", "type": "in vivo, human", "description": "The primary endpoint was progression-free survival (PFS).\nProtein lysine acetylation was measured by multi-parameter flow cytometry in peripheral blood mononuclear cells (PBMCs; CD19+ B cells, CD3+ T cells, and CD14+ monocytes) collected pre and post-treatment on D1, D8, and D15 of C1 to explore the association with PFS.\nThe association of PFS with degree of change in protein lysine acetylation from baseline in PBMCs was evaluated as an exploratory, post-hoc analysis in a subset of patients using the Cox proportional hazard model. Analyses in all 3 cell types (B cells, T cells, monocytes) was performed for consistency of results and to aid in selection of optimal cell type for analysis in future studies.\nBaseline characteristics were consistent with the overall study population (FIG. 17). Hyperacetylation in EE patients was associated with a prolonged median PFS consistent across all cell types tested (FIG. 18): 8.5 versus 2.7 months for low acetylators (HR=0.32, 95% CI 0.13, 0.79) (B cells); 6.6 versus 3.6 months for low acetylators (HR=0.44, 95% CI 0.18, 1.08) (T cells); and 6.2 versus 3.6 months for low acetylators (HR=0.50, 95% CI 0.21, 1.20) (monocytes). […] The percent change in acetylation from baseline was determined based upon the last sample obtained. The degree of change in acetylation was then dichotomized into “high” (i.e., above the median or “hyperacetylators”) and “low” (i.e., below the median) subgroups using a non-model based approach: patients with a change from baseline that was greater than or equal to the 50th percentile (median) of the overall distribution were assigned to the “high” group; patients with a change less than the 50th percentile were assigned to the “low” group. The cut-point for the analysis (50th percentile) was determined a priori, but was not based on findings from earlier studies.\nPercent change is calculated and related to progression free survival (PFS) outcome data. Hyperacetylation independent of treatment arm is defined as a percent change increase above the calculated median percent change for each cell type."}, "[2]": {"system": "advanced BC demonstrating PD or recurrence following a NSAI", "settings": "reported by Chia, et al; cited from earlier work"}, "[3]": {"assay": "Phase 2 study of exemestane with and without entinostat: safety and tolerability (adverse events)", "type": "in vivo, human", "description": "(§1) Secondary Outcome Measures are to compare objective response rate (ORR) and clinical benefit rate (CBR), and to evaluate the safety and tolerability of entinostat in combination with exemestane as measured by adverse events and laboratory safety parameters.\nSafety was assessed by adverse events (AEs), using the National Cancer Institute Common Terminology Criteria for Adverse Events, version 3.0, electrocardiograms, hematology and serum chemistries, ECOG performance status, and vital signs.\nSafety was assessed by an independent Data Safety Monitoring Board. All participating investigators and patients remain blinded to the assigned study treatment, as post-treatment follow-up for OS is continuing."}, "[4]": {"system": "locally recurrent or metastatic estrogen receptor-positive breast cancer", "assay": "Phase 2 randomized, double-blind study of exemestane with and without entinostat (ENCORE-301): efficacy", "type": "in vivo, human", "settings": "for median progression-free survival (PFS) / overall survival: intent-to-treat population; for overall survival: median follow-up of 18 months", "from_the_text": "as §1\nThe primary endpoint of the study was progression-free survival. Other endpoints included objective response rate (ORR), clinical benefit rate (CBR), overall survival (OS) and safety and tolerability. All patients had received prior hormonal therapy (1 prior line 42%; >1 prior line 58%), and 33% had received prior chemotherapy in the advanced breast cancer setting.\nOne hundred thirty (130) patients were enrolled between June 2008 and July 2010 at 38 sites in North America, Central Europe, and Russia. All patients provided written informed consent. […] Randomization was stratified by 1) prior NSAI treatment setting (adjuvant/metastatic); 2) metastases in bone only (yes/no); and 3) geographic region (North America/Central Europe and Russia). The randomization schedule was prepared and maintained by an independent statistical service provider. The protocol allowed for enrollment of approximately 20% of patients with non-measurable disease.\nPostmenopausal women with ER+BC currently experiencing disease relapse or progression while receiving a NSAI were eligible. Patients either had 1) relapsed after adjuvant NSAI treatment administered for at least 12 months or 2) progressed after NSAI treatment administered for at least 3 months in the metastatic/advanced setting. One prior line of chemotherapy in the metastatic setting was permitted if given before the most recent NSAI. Within 4 weeks prior to starting study treatment, patients must have had at least 1 measurable lesion (≥20 mm by conventional techniques or ≥10 mm by spiral computed tomography [CT] scan), or with bone only metastases, a positive bone scan confirmed by magnetic resonance imaging (MRI) or positron emission tomography (PET)-CT. Additional requirements included, an Eastern Cooperative Oncology Group (ECOG) performance status of 0 or 1; adequate hematologic parameters; and creatinine, aspartate transaminase, and alanine transaminase <2.5 times the upper limit of normal. Patients with prior fulvestrant, exemestane, entinostat, or any other HDACi were excluded.\nTreatment cycles were 28 days in length. Patients were evaluated on Day (D) 1, D8, and D15 during Cycle (C) 1 and on D1 of all subsequent cycles. Peripheral blood samples were taken in a subset of patients pre- and post-dosing on D1, 8, or 15 of C1. Patient/disease response assessments were performed on D22 of C2 and every other cycle thereafter. After completing study treatment, patients entered into post-treatment follow-up for evaluation of overall survival and subsequent therapies. Patients were to be followed until death, withdrawal of consent, or study closure by the sponsor.\nDisease was evaluated using the Response Evaluation Criteria in Solid Tumors (RECIST), version 1.0. Contrast-enhanced CT scans were obtained at baseline, every other cycle for 12 months, and every third cycle thereafter. PD also was assessed by bone scan and clinical symptoms, as appropriate.\nThe primary endpoint was PFS, defined as the number of months from randomization to documented PD or death due to any cause. Secondary endpoints included overall response (OR; complete response [CR]+partial response [PR]) and clinical benefit rates (CBR; OR+stable disease [SD] for ≥6 months). Overall Survival (OS) was an exploratory endpoint.\nPFS was summarized descriptively using the Kaplan-Meier method and reported based on 116 progression events as of March 2012. The HR was estimated from a stratified Cox proportional hazards model, with placebo serving as the reference in the calculation. The primary inferential comparison between groups was made using the log-rank test, stratified by the 3 randomization factors. For patients who died before documentation of PD, death date was used as the PD date. […]"}, "[5]": {"assay": "Plasma entinostat concentration at acetylation sampling time points", "type": "in vivo, human", "settings": "D8 and D15 time points used for acetylation evaluation; generally at or below the assay detection limit"}, "[6]": {"settings": "in vivo; cited from earlier work"}, "[7]": {"settings": "listed as exemestane plus placebo"}}, "note": "Several values for one entry are separate records, joined by “and”; a condition that tells them apart may be missing. Equal entries are not always repeated."}
{"smiles": "C=C1C[C@@H]2[C@H](CC[C@]3(C)C(=O)CC[C@@H]23)[C@@]2(C)C=CC(=O)C=C12", "note": "[EP, exemestane]", "values": [{"measurement": "median PFS, high acetylators (hyperacetylation)", "setting": "[1]; B cells", "value": "1.9 months and 1.92 months"}, {"measurement": "median PFS, low acetylators", "setting": "[1]; B cells", "value": 1.8, "unit": "months"}, {"measurement": "median PFS, high acetylators (hyperacetylation)", "setting": "[1]; T cells", "value": 1.77, "unit": "months"}, {"measurement": "median PFS, high acetylators (hyperacetylation)", "setting": "[1]; monocytes", "value": 1.87, "unit": "months"}, {"measurement": "median PFS", "setting": "[2]", "value": 3.7, "unit": "months"}, {"measurement": "serious AE rate", "setting": "[3]; Example 1a", "value": 12, "unit": "%"}, {"measurement": "incidence of serious AEs", "setting": "[3]; Example 1c, Safety Population", "value": 12, "unit": "%"}, {"measurement": "AEs leading to dose modification", "setting": "[3]; Safety Population", "value": 6, "unit": "%"}, {"measurement": "AEs leading to study discontinuation", "setting": "[3]; Safety Population", "value": 2, "unit": "%"}, {"measurement": "G4 AEs", "setting": "[3]; Safety Population", "value": 3, "unit": "%"}, {"measurement": "Grade (G) 3 AEs", "setting": "[3]; Safety Population", "value": 23, "unit": "%"}, {"measurement": "rate of AEs", "setting": "[3]; Safety Population, irrespective of study drug relationship", "value": 85, "unit": "%"}, {"measurement": "median overall survival", "setting": "[4]; 23-month follow-up", "value": 19.8, "unit": "months"}, {"measurement": "incidence of death", "setting": "[4]; Example 1c analysis", "value": 65, "unit": "%"}, {"measurement": "median OS", "setting": "[4]; Example 1c analysis, ITT population", "value": 19.8, "unit": "months"}, {"measurement": "clinical benefit rate (CBR; OR+SD for >=6 months)", "setting": "[4]; ITT population", "value": 25.8, "unit": "%"}, {"measurement": "overall response (OR; CR+PR)", "setting": "[4]; ITT population, RECIST 1.0", "value": 4.6, "unit": "%"}, {"measurement": "median progression-free survival (PFS)", "setting": "[4]", "value": "2.3 months and 2.27 months"}, {"measurement": "median progression-free survival (PFS)", "setting": "[4]; listed as exemestane alone", "value": 2.3, "unit": "months"}, {"measurement": "median progression-free survival (PFS)", "setting": "[4]; [7]", "value": "2.27 months and 2.3 months"}, {"measurement": "median progression-free survival (PFS)", "setting": "[4]; listed as exemestane+placebo", "value": 2.3, "unit": "months"}, {"measurement": "overall survival", "setting": "[4]", "value": 20.3, "unit": "months"}, {"measurement": "overall survival", "setting": "[4]; [7]", "value": 20.33, "unit": "months"}]}
{"smiles": "Nc1ccccc1NC(=O)c1ccc(CNC(=O)OCc2cccnc2)cc1", "note": "[entinostat, N-(2-aminophenyl)-4-[N-(pyridine-3-yl)methoxycarbonylamino-methyl]-benzamide]", "values": [{"measurement": "neutropenia cases attributed to entinostat", "setting": "[3]; EE group, 13 of 19 cases", "value": 68, "unit": "%"}, {"measurement": "tolerability / safety profile", "setting": "[3]; Phase 2 clinical trial", "value": "acceptable safety profile"}, {"measurement": "plasma entinostat concentration", "setting": "[5]", "value": "< 0.5", "unit": "ng/mL"}, {"measurement": "half-life", "setting": "[6]", "value": "about 100 hours"}]}
